Assay results reported in US8273773B2 (priority 2008, dated 2012).
Where two headings read alike, the source gives them in different places.

How the values were obtained:
[1] = tested on: HCV replicon cells (2209-23), genotype 1b replicon; experiment: HCV Replicon Assay (Renilla luciferase reporter); type: cell-based, HCV genotype 1b replicon in human hepatoma Huh7 cells; settings: 2209-23 cells, three days incubation
[2] = target: T1, HCV polymerase (NS5B570n-Con1) (Hepatitis C virus genotype 1b, UniProt Q9WMX2); experiment: biochemical; parameters: species or system HCV Con1 strain;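 further: recombinant His-tagged enzyme from E. coli, radiolabeled nucleotide incorporation into acid-insoluble RNA read by scintillation after filtration, no-enzyme background subtracted, activity relative to positive control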
T1 construct: contains a 21 amino acid deletion at the C-terminus relative to the full-length HCV polymerase; 6-histidine (N); made in house; host or cells: E. coli strain BL21(DE) pLysS (pET17b)

HCV = settings: monotherapy; cited from earlier work
[3] = IC50 HCV NS5B RNA Polymerase Assay (values with asterisk), values with asterisk: cIRES RNA template, 3 nM NS5B570n-Con1

`COc1c(/C=C/c2ccc(NS(C)(=O)=O)cc2)cc(-c2ccc[nH]c2=O)cc1C(C)(C)C` [I-126, N-(4-{(E)-2-[3-tert-Butyl-2-methoxy-5-(2-oxo-1,2-dihydro-pyridin-3-yl)-phenyl]-vinyl}-phenyl)-methanesulfonamide] showed an IC50 ([1]; Hepatitis C virus, 72 h) of 6 nM.
`Cc1cc(C(=O)O)ccc1[N+](=O)[O-]` [I-129] gave an IC50 [1] of 101 nM and an IC50 ([2]; values without asterisk, 20 nM NS5B570n-Con1 enzyme, 20 nM cIRES RNA template, read-out: IC50 HCV NS5B RNA Polymerase Assay) of 7 nM.
`COc1c(/C=C/c2ccc(NS(C)(=O)=O)cc2)cc(-c2cc(F)c[nH]c2=O)cc1C(C)(C)C` [I-142, N-(4-{(E)-2-[3-tert-Butyl-5-(5-fluoro-2-oxo-1,2-dihydro-pyridin-3-yl)-2-methoxy-phenyl]-vinyl}-phenyl)-methanesulfonamide] showed an IC50 ([1]; Hepatitis C virus, 72 h) of 78 nM.
Work on `COc1c(/C=C/c2ccc(NS(C)(=O)=O)cc2CO)cc(-c2cc(F)c[nH]c2=O)cc1C(C)(C)C` [I-187, N-(4-{(E)-2-[3-tert-Butyl-5-(5-fluoro-2-oxo-1,2-dihydro-pyridin-3-yl)-2-methoxy-phenyl]-vinyl}-3-hydroxymethyl-phenyl)-methanesulfonamide] yielded an IC50 ([1]; Hepatitis C virus, 72 h) of 43.2 nM and an IC50 [2, 3] of 3 nM.
Work on `COc1c(/C=C/c2ccc(NS(C)(=O)=O)cc2C(=O)O)cc(-c2ccc[nH]c2=O)cc1C(C)(C)C` [I-203, 2-{(E)-2-[3-tert-Butyl-2-methoxy-5-(2-oxo-1,2-dihydro-pyridin-3-yl)-phenyl]-vinyl}-5-methanesulfonylamino-benzoic acid] yielded a melting point of 260 to 262 °C and an IC50 ([1]; Hepatitis C virus, 72 h) of 10 nM.
Compound `COc1c(/C=C/c2ccccc2C(C)=O)cc(-c2ccc[nH]c2=O)cc1C(C)(C)C` [I-243, 3-{3-[(E)-2-(2-Acetyl-phenyl)-vinyl]-5-tert-butyl-4-methoxy-phenyl}-1H-pyridin-2-one] has an IC50 ([1]; Hepatitis C virus, 72 h) of 208 nM.
`COc1c(/C=C/c2ccc(NS(C)(=O)=O)cc2)cc(-c2ccc[nH]c2=O)cc1C1(Cl)CC1` [I-267] gave an IC50 ([1]; Hepatitis C virus, 72 h) of 10.2 nM.
Compound `COc1c(/C=C/c2ccc(NS(C)(=O)=O)cc2)cc(-c2ccc[nH]c2=O)cc1C1(C#N)CC1` [I-268, N-(4-{(E)-2-[3-(1-Cyano-cyclopropyl)-2-methoxy-5-(2-oxo-1,2-dihydro-pyridin-3-yl)-phenyl]-vinyl}-phenyl)-methanesulfonamide] has an IC50 ([1]; Hepatitis C virus, 72 h) of 22 nM.
With `COc1c(/C=C/c2ccc(NS(C)(=O)=O)cc2)cc(-c2ccc[nH]c2=O)cc1C1(C(F)F)CC1` [I-270] the IC50 ([1]; Hepatitis C virus, 72 h) was 34.4 nM and the IC50 [2, 3] was 1 nM.
In the case of `CC1(C)COc2c(-c3cc(F)c[nH]c3=O)cc(/C=C/c3ccc(NS(C)(=O)=O)cc3)cc21` [II-3], the melting point is reported as 264 to 266 °C and the IC50 ([1]; Hepatitis C virus, 72 h) is reported as 54.6 nM.
For `NC(=O)c1ncn([C@@H]2O[C@H](CO)[C@@H](O)[C@H]2O)n1` [ribavirin, 1-((2R,3R,4S,5R)-3,4-Dihydroxy-5-hydroxymethyl-tetrahydro-furan-2-yl)-1H-[1,2,4]triazole-3-carboxylic acid amide], the “patients in whom serum amino transferase levels are reduced to normal” value (HCV) is given as 40%.
